Results published in publication PMC8149447, “Caerulomycin and collismycin antibiotics share a trans-acting flavoprotein-dependent assembly line for 2,2’-bipyridine formation” (Nature Communications, 2021).
One block for each molecule: values may come before it.

Tests used:
[1] = target: T1, ColB1 (Streptomyces filamentosus, UniProt A0ABY4UQ20); assay: heat denaturation and HPLC-DAD / ESI-HR-MS; format: binding; conditions: noncovalent; co-purified
T1 construct: gene K7395_06050; full length, N-terminal 6xHis (or MBP-6xHis) tag; noncovalent FAD
T1 sequence (A0ABY4UQ20 1-394): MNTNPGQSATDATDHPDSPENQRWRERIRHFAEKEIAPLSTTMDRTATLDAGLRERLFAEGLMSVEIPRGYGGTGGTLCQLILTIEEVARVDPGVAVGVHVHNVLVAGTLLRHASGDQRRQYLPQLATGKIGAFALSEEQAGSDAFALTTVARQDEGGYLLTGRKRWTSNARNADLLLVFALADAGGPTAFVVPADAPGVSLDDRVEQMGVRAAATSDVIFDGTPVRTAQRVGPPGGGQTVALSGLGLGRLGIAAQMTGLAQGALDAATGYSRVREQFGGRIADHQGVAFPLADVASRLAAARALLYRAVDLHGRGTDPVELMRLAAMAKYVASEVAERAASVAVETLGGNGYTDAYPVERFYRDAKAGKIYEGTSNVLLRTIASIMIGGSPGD

[2] = target: T2, CaeB1 (Actinoalloteichus caeruleus, UniProt M1F383, S168A); assay: absorbance spectrum; activity rescue by added FAD; format: biochemical; conditions: noncovalent; excess FAD added in the product assay
T2 construct: full length, N-terminal 6xHis (or MBP-6xHis) tag, expressed in E. coli; noncovalent FAD
T2 sequence (M1F383 entry or part of it S168A): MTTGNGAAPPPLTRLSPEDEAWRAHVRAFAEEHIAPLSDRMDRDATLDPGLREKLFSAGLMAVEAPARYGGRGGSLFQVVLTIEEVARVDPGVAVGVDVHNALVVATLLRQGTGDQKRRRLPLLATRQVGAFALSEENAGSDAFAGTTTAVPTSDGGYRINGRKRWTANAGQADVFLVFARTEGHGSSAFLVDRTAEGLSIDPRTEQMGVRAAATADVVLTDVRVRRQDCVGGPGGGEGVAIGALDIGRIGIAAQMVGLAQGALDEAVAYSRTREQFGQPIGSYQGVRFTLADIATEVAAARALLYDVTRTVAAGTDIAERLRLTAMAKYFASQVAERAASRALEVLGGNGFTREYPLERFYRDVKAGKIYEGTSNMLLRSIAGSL

[3] = target: T3, CaeB1 (Actinoalloteichus caeruleus, UniProt M1F383, E372L); assay: absorbance spectrum of purified protein; format: binding; conditions: noncovalent; co-purified, oxidized form
T3 construct: full length, N-terminal 6xHis (or MBP-6xHis) tag, expressed in E. coli; noncovalent FAD
T3 sequence (M1F383 entry or part of it E372L): as the sequence (M1F383 entry or part of it S168A) above, with A168S, E372L counted along it

[4] = target: T4, CaeB1 (Actinoalloteichus caeruleus, UniProt M1F383); assay: absorbance spectrum; heat denaturation and HPLC-HR-MS; format: binding; conditions: noncovalent; co-purified, oxidized form
T4 construct: full length, N-terminal 6xHis (or MBP-6xHis) tag, expressed in E. coli; noncovalent FAD
T4 sequence (M1F383 1-386): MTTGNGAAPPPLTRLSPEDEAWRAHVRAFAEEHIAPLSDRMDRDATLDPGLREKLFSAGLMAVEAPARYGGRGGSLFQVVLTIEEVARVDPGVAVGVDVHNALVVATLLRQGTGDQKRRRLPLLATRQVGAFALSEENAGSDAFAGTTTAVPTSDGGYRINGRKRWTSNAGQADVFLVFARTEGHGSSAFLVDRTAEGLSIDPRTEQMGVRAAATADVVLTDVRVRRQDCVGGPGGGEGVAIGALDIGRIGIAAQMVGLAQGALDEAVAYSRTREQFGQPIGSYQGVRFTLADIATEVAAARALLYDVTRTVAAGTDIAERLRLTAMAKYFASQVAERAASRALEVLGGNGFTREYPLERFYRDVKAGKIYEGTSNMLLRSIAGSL

[5] = target: T5, ColA3 (Streptomyces filamentosus, UniProt A0ABY4UPY4); assay: HPLC / MS of product […] (as IAA derivative […]) or […]; format: biochemical; conditions: reconstituted with CaeA1, CaeA2, CaeB1; picolinic acid, malonyl-CoA, L-cysteine, ATP, Mg, pH 7.5, 30 C
T5 construct: gene K7395_06055; full length C-A-PCP module, N-terminal 6xHis (or MBP-6xHis) tag
T5 sequence (A0ABY4UPY4 entry or part of it): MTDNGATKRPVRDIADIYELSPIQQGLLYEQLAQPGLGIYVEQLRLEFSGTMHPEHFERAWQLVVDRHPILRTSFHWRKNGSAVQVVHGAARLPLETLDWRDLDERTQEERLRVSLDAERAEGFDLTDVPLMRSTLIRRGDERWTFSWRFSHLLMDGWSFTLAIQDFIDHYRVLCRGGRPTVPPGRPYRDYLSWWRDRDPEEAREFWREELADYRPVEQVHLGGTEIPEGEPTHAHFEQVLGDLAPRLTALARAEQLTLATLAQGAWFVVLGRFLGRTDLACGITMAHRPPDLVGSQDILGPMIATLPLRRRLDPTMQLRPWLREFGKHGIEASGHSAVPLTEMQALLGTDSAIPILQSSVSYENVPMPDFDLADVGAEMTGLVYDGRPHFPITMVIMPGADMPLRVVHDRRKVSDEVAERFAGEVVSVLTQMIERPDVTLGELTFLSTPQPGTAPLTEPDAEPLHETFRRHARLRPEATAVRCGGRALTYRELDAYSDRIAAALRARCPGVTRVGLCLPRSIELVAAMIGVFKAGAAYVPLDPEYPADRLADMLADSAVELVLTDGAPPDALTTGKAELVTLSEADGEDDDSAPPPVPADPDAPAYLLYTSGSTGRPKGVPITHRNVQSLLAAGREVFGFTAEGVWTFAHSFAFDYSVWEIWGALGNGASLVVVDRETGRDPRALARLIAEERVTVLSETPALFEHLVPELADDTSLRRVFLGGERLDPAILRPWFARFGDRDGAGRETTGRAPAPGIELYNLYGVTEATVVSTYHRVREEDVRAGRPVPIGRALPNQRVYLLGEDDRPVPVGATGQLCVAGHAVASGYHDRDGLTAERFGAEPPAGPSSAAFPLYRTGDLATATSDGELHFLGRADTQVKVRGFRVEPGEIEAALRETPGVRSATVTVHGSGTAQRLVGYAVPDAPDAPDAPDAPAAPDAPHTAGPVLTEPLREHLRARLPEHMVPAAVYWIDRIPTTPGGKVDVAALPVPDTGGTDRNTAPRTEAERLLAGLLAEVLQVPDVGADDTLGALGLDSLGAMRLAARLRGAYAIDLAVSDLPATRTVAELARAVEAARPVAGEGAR

[6] = target: N-terminally thioredoxin (Trx)-tagged Ct domain of the CaeA2 NRPS module (A. cyanogriseus (CAE-producing strain)); assay: ITC; MicroCal-ITC200, 25°C; 60 μM CaeA2 construct in the cell, 400 μM flavoprotein in the syringe; 50 mM Tris-HCl pH 7.5, 100 mM NaCl, 0.1 mM TCEP, 5% glycerol; single binding site model
[7] = target: T6, MBP-fused CaeB1 variant (A. cyanogriseus (CAE-producing strain), UniProt M1F383 1-386); assay: as above; conditions: both partners purified
T6 construct: CaeB1, flavin (FAD)-dependent protein of the caerulomycin (cae) biosynthetic gene cluster; also called trans-acting flavoprotein; not shown: MBP, N-terminal, kept
T6 sequence (looked up): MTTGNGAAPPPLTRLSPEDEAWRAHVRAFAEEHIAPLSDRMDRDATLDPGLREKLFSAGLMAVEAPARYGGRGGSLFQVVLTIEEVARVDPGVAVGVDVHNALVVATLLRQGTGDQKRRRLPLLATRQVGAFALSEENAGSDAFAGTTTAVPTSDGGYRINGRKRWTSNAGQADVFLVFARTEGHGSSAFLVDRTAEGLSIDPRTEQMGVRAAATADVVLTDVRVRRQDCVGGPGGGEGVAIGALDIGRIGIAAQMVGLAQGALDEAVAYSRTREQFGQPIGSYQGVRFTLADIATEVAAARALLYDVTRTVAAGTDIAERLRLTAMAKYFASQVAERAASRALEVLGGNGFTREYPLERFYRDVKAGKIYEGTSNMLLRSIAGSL

[8] = target: Ct-PCP didomain of the CaeA2 NRPS module (A. cyanogriseus (CAE-producing strain)); assay: as above

Molecule: Cc1cc2nc3c(=O)[nH]c(=O)nc-3n(C[C@H](O)[C@H](O)[C@H](O)COP(=O)(O)OP(=O)(O)OC[C@H]3O[C@@H](n4cnc5c(N)ncnc54)[C@H](O)[C@@H]3O)c2cc1C [FAD]
heat denaturation and HPLC-DAD / ESI-HR-MS [1]: ColB1, the homolog of trans-acting flavoprotein CaeB1 that also noncovalently binds a FAD cofactor
FAD-binding ability [2]: the latter variant was nearly colorless, indicating the loss of FAD-binding ability
absorbance spectrum of purified protein [3]: shares with the wild-type protein a light yellow color and an absorbance spectrum characteristic of FAD
absorbance spectrum; heat denaturation and HPLC-HR-MS [4]: Purified CaeB1, which appeared light yellow, was determined to bind oxidized flavin adenine dinucleotide (FAD)

Molecule: CC(C)C[C@H](N)C(=O)O [L-leucine]
HPLC / MS of product 15 (as IAA derivative 17) or 16 [5]: incubating CaeA1, CaeA2, and CaeB1 with ColA3 in the presence of the necessary substrates

Continued, values first:

Kd [6]: 1180 nM
Molecule: ColB1 (enzyme)

Kd [7]: 530 ± 120 nM
B1: N-terminally thioredoxin (Trx)-tagged Ct domain of the CaeA2 NRPS module (domain or fragment)
chain: EQEADGTVAPFTPHQAALVAEGAVDWITVEAAASDLDPALAERALREIADRHPALRLRSGTRDDGTPGQYDGGSPGDGLFSEIDLSGLAEDARDDALAEIVAEMSEEVGLAEREPVKLAVVRAGADDVRLLWLAAGAALDDTSWRLLLAEFGRAYQQLAERGSIDWTGMPESVLGWVATQEGAAPPPSVETVAFTGELRTVLDADVTTAFAEATFGAYHLELGEAVAAALTVAARAWPGREPAVTVERSLRTATTDEALGRFTEVTTLDVAAEAVADTLTGVKRAYRDVVRPAPAHPRVHLRDVRSGDWRPTAGPLSPAGLSSPVSTATTPEVLAEVGAAVVGGELVLRWRHTTDAAEATALAEAFTEAVETITEHCRQAGSGSYEPSDFPLAGVDPDELSALLSTLEK
modifications: Trx/6xHis tag omitted; Ct primers not in the excerpt; start placed just after the Carrier feature (2001-2075), in line with the 58 kDa Trx fusion and the 44 kDa difference between CaeA2 and …

Kd [8]: 420 nM
B2: MBP-fused CaeB1 variant (enzyme)
chain: MTTGNGAAPPPLTRLSPEDEAWRAHVRAFAEEHIAPLSDRMDRDATLDPGLREKLFSAGLMAVEAPARYGGRGGSLFQVVLTIEEVARVDPGVAVGVDVHNALVVATLLRQGTGDQKRRRLPLLATRQVGAFALSEENAGSDAFAGTTTAVPTSDGGYRINGRKRWTSNAGQADVFLVFARTEGHGSSAFLVDRTAEGLSIDPRTEQMGVRAAATADVVLTDVRVRRQDCVGGPGGGEGVAIGALDIGRIGIAAQMVGLAQGALDEAVAYSRTREQFGQPIGSYQGVRFTLADIATEVAAARALLYDVTRTVAAGTDIAERLRLTAMAKYFASQVAERAASRALEVLGGNGFTREYPLERFYRDVKAGKIYEGTSNMLLRSIAGSL
